This note sets out measurements from US11730712B2, “Functionalized long-chain hydrocarbon mono- and di-carboxylic acids and derivatives thereof, and their use for the prevention or treatment of disease” (ESPERVITA THERAPEUTICS, INC., priority 2021, dated 2023).

What is called IC50 is the point on the concentration scale where inhibition reaches its midpoint.

In one assay the target is T1, Human ACC2 (Homo sapiens, UniProt O00763).
T1 construct: FLAG (C); His (C); purchased BPS Biosciences 50201; host or cells: Baculovirus infected Sf9 cells
In words: ACC2 enzymatic assay (ADP-Glo). It is filed as biochemical. The following applies: recombinant human ACC2 1 nM, 10 μM ATP, 10 μM acetyl CoA; Run 1-3; read-out: Compound IC50 (M) ACC2. Here is the method: Human ACC1 (Cat#50202 Lot #120830) and ACC2 (Cat #50201 Lot #160217) were obtained from BPS Biosciences, San Diego, Calif. 92121. Human ACC1 had C-terminal flag and His-tags with a MW of 270 KDa after purification from Baculovirus infected Sf9 cell expression system and came as a solution in 50 mM Tris-HCl, pH 8.0, 500 mM NaCl, 10% glycerol, 1 mM DTT, 100 μg/ml FLAG peptide with 70% purity. The stock concentration was 0.25 mg/ml corresponding to 0.926 μM. Human ACC2 was also purified from Baculovirus infected Sf9 expression system. […] The stock concentration was 0.1 mg/ml corresponding to 0.36 μM. The assay buffer for measuring the activity of ACC contained: 30 mM HEPES (pH 7.4), 2 mM MgCl2, 0.01% Brij35, 2 mM DTT, 1% DMSO (solvent for compound). For ACC1 and ACC2 assays, the following concentrations of substrate and cofactors were used: 12 mM NaHCO3, 10 μM acetyl CoA, 10 μM ATP, and 2 mM K-citrate. The recombinant human enzyme was used at 5 nM for ACC1 and 1 nM for ACC2. In brief, enzyme alone in the above buffer without substrate was used for background. All test materials were dissolved in 100% DMSO using acoustic technology (Echo550). The prepared solution was preincubated for 15 min followed by the addition of 5 μL/well of ADP standard. ATP was then added to start the reaction. The assay contents were spun and briefly shaken followed by incubation at room temperature for 1 h. At the end of completion of assay, 5 μL of ADP-Glo was added to each well to stop the reaction. The contents were mixed, spun and incubated at room temperature for 40 min followed by the addition of 10 μL/well of ADP detection reagent. The contents were spun, mixed and covered with plastic to measure luminescence. […] The light generated, measured in a luminometer, correlates to the amount of ADP generated in the ACC assay, which is indicative of ACC activity.
The enzyme concentrations for ACC1 and ACC2 were 5 nM and 1 nM, respectively.
Data represent nM or μM ADP produced, % Activity (relative to no inhibitor controls), and curve fits were performed by GraphPad Prism software. […]
(In general: ADP-Glo turns the ADP formed in a reaction into a luminescent signal.)

The next assay relates to Hep3B cells. In words: Hep3B cell proliferation. It is filed as cell-based. The conditions noted are these: with or without regorafenib (1.5 μM). The source says:
FIG. 36 show anti-proliferative effect of illustrative compounds of the invention in Hep3B cells.
Each bar represents the mean±the SEM, n=5. *p<0.03, **p<0.002, ***p<0.0002, ****p<0.0001, One-way ANOVA followed by Tukey's multiple comparison.

Assay [1] has as its system hepatic cell death pathways (pyroptosis, necroptosis, apoptosis). Nature of the assay: Hepatic cell death pathways by Western blot (gasdermin D, cleaved caspase 3, cleaved RIP3). The following applies: liver samples from HFCC/CDX mice, 100 mg/kg QD oral, 2 weeks. In kind it is in vivo, mouse. How it is done: Compound I-1 and Compound I-32 were tested for their ability to alter hepatic cell death pathways (i.e., pyroptosis, necroptosis, and apoptosis) using liver samples from Example 7. Detection was performed on liver sections obtained from the experiment described in Example 7. Paraffin sections were deparaffinized. Western blot analysis was performed by the We-Met platform. Toulouse. France, France. Commercial primary antibodies for Gasdermin D (reference ab209845; Abcam, Cambridge, UK), cleaved caspase 3 (reference 9664, Cell Signaling Technology. Danvers, Mass.), cleaved receptor interacting protein 3 (RIP3; reference ab56164; Abcam) and actin (reference 4970; Cell Signaling Technology) for control, were used on the WES automated western blot system (Proteinsimple, San Jose, Calif.). Data are presented as mean±SEM, with n=6-10 mice per experimental group, as indicated in the legends. Two-way analysis of variance with Bonferroni post-test. Mann-Whitney U-test, or unpaired two-tailed Student's t-test were used for statistical analysis using GraphPad Prism software (GraphPad Software, La Jolla, Calif.). A P<0.05 was considered significant.

The test system of assay [2] is Hep3B human hepatocarcinoma cells. In words: Colony formation assay (clonogenic survival, 7 days). The conditions noted are these: 168 h, read-out: Hep3B (IC50), anti-clonogenic activity. In kind it is cell-based. Here is the method: (§1) Colony formation assay. Hep3B and Hepa1-6 cells were seeded in 12-well plates at a cell density of 1000 and 500 cells/well, respectively. On day 2, media in each well was aspirated and replaced with 1000 μl of fresh complete media and cells were treated with or without the respective drugs in an increasing concentration followed by the incubation of the cells for 7 days in an incubator.
(§2) On day 9, the media in each well was aspirated and cells were fixed with 10% formalin (500 μl) for 10 minutes at room temperature. Formalin was aspirated and the plates were washed with 1×PBS and stained with crystal violet for another 10 minutes. After 10 minutes of staining, crystal violet was […] the cells, rinsed with tap water for three times and the plates were dried overnight. Next day, colonies (>50 cells) were counted and analyzed.
(§3) Statistical tests. Results were indicated as mean±standard deviation (SD). All line graphs were prepared using Graph Pad Prism 8 software. Proliferation and clonogenics IC50 values were calculated using a non-linear regression model in Graph pad Prism 8.

In assay [3] the test system is Hepa1-6 murine hepatoma cells. Described as above. In kind it is cell-based. The conditions noted are these: Mus musculus, Hepa1-6, 168 h, read-out: Hepa1-6 (IC50), anti-clonogenic activity. Here is the method: as §1, §2, §3

Several values for one entry are separate records, joined by “and”; a condition that tells them apart may be missing. Identical values can stand only once.

T1 sequence (O00763 whole entry): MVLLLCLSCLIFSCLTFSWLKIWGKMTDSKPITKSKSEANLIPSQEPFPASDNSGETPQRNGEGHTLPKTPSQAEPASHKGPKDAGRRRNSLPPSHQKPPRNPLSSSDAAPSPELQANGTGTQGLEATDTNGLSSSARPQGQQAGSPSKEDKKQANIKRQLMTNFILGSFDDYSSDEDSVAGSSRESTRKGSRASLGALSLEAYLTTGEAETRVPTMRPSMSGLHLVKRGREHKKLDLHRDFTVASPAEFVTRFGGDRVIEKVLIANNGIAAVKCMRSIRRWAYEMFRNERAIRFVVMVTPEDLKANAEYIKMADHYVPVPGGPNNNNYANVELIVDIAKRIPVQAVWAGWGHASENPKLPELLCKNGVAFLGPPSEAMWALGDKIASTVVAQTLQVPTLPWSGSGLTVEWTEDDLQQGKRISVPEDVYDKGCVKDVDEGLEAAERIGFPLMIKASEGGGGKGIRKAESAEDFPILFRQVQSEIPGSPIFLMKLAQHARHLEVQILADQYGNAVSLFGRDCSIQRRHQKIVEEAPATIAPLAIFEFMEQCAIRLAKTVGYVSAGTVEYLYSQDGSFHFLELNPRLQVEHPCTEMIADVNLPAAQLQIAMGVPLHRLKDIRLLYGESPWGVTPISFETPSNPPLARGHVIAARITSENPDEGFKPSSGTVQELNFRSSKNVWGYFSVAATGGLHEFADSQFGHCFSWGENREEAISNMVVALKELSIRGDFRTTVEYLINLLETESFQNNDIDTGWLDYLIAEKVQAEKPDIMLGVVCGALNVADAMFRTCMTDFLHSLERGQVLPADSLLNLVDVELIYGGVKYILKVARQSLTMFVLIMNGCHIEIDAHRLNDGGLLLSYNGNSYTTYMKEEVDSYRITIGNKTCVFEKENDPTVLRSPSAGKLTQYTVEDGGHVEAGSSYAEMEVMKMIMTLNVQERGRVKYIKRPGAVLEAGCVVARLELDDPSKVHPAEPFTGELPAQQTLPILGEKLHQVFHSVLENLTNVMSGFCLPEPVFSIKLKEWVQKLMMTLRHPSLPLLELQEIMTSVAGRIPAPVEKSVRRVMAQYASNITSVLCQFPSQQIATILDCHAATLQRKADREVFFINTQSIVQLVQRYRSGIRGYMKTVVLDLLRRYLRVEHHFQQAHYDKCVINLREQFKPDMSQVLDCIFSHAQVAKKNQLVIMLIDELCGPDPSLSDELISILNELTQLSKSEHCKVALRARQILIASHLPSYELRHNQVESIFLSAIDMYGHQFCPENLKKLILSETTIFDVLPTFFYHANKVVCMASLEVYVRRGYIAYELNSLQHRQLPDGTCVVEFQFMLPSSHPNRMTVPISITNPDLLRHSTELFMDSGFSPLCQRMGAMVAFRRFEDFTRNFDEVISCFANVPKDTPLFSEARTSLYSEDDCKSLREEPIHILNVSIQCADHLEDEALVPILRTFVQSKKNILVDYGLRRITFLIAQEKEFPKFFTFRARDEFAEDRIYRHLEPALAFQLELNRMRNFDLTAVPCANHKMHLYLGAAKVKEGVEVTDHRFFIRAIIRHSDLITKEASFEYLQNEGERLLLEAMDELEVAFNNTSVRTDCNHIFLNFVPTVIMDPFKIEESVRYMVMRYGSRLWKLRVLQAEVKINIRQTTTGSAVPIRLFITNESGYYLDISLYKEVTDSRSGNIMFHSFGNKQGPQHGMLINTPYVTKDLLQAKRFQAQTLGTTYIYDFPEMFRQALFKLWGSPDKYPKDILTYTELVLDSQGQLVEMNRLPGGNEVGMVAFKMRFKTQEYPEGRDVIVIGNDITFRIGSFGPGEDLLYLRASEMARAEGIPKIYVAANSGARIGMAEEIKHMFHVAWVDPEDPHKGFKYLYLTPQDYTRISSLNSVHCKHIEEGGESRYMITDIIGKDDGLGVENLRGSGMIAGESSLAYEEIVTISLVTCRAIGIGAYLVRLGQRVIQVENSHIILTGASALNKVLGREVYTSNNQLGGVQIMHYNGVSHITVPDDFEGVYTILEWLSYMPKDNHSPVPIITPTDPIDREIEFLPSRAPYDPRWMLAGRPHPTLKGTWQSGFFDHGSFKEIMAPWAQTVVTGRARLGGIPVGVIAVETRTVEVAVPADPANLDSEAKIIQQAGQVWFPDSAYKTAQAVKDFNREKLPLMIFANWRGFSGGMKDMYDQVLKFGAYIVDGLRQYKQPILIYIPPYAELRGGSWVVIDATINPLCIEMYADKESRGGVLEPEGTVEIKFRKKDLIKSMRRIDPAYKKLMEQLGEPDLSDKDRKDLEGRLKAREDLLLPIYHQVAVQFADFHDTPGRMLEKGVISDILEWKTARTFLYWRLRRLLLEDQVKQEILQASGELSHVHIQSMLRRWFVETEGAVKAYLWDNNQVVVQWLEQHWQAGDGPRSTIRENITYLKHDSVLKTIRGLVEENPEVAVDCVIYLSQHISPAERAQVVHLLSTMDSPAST

Take `CC(C)(CCCCc1cccc(CCCCC(C)(C)C(=O)SCCNC(=O)CCNC(=O)[C@H](O)C(C)(C)COP(=O)(O)OP(=O)(O)OC[C@H]2O[C@@H](n3cnc4c(N)ncnc43)[C@H](O)[C@@H]2OP(=O)(O)O)c1)C(=O)O` [Compound I-32-CoA, 6-[3-(5-Carboxy-5-methylhexyl)-phenyl]-2,2-dimethylhexanoic acid Coenzyme A Ester]: the IC50 on Human ACC2 was 5.02e-06 M and 4.22e-06 M and 3.33e-06 M.
With `CC(C)(CCCCc1cccc(CCCCC(C)(C)C(=O)O)c1)C(=O)O` [Compound I-32, 6-[3-(5-carboxy-5-methylhexyl)-phenyl]-2,2-dimethylhexanoic acid], the effect on proliferation result with Hep3B cells is on record as “anti-proliferation effect”. Also, in assay [1], the “hepatic cell death pathways (pyroptosis, apoptosis, necroptosis) by Western blot” value is “significantly repressed pyroptosis and apoptosis cell death pathways with a trend towards necroptosis”. For the same molecule, the IC50 worked out at 40.8 µM in assay [2] and 58.9 µM in assay [3].
With `CC(C)(CCCCc1ccc(CCCCC(C)(C)C(=O)SCCNC(=O)CCNC(=O)[C@H](O)C(C)(C)COP(=O)(O)OP(=O)(O)OC[C@H]2O[C@@H](n3cnc4c(N)ncnc43)[C@H](O)[C@@H]2OP(=O)(O)O)cc1)C(=O)O` [Compound I-1-CoA, 6-[4-(5-carboxy-5-methylhexyl)-phenyl]-2,2-dimethylhexanoic acid Coenzyme A ester], the IC50 at Human ACC2 was 9.41e-06 M and 7.72e-06 M and 9.06e-06 M.
Regarding `CC(C)(CCCCc1ccc(CCCCC(C)(C)C(=O)O)cc1)C(=O)O` [Compound I-1, 6-[4-(5-carboxy-5-methylhexyl)-phenyl]-2,2-dimethylhexanoic acid], the effect on proliferation result in the assay on Hep3B cells is “anti-proliferation effect”. Besides, the “hepatic cell death pathways (pyroptosis, apoptosis, necroptosis) by Western blot” value in assay [1] was “significantly repressed pyroptosis and apoptosis cell death pathways with a trend towards necroptosis”. Moreover, the IC50 in assay [2] turned out to be 50.7 µM; in assay [3] it was 67.6 µM.
